Test results published in patent US5902812A, “Pharmaceutical piperazine compounds” (Xenova Limited, priority 1994, dated 1999).
Structures can show the parent of a compound that is named as a salt. Where two headings read alike, the source gives them in different places.

Target: PAI-1 (Homo sapiens, UniProt P05121)
Experiment: biochemical
Conditions: for IC50: PAI chromogenic substrate assay, read-out: IC50; for inhibition at 20 µM: 20 μM (third part of Table 1)
[1] = read-out: Degree of inhibition in PAI chromogenic substrate assay
[2] = 50 μM (third part of Table 1), read-out: Degree of inhibition in PAI chromogenic substrate assay
[3] = 100 μM (third part of Table 1), read-out: Degree of inhibition in PAI chromogenic substrate assay
[4] = 6.25 μM, read-out: Degree of inhibition in PAI chromogenic substrate assay
[5] = 50 μM, read-out: Degree of inhibition in PAI chromogenic substrate assay
[6] = 100 μM, read-out: Degree of inhibition in PAI chromogenic substrate assay
[7] = 12.5 μM, read-out: Degree of inhibition in PAI chromogenic substrate assay
[8] = 25 μM, read-out: Degree of inhibition in PAI chromogenic substrate assay

Chain of PAI-1 (P05121 24-402): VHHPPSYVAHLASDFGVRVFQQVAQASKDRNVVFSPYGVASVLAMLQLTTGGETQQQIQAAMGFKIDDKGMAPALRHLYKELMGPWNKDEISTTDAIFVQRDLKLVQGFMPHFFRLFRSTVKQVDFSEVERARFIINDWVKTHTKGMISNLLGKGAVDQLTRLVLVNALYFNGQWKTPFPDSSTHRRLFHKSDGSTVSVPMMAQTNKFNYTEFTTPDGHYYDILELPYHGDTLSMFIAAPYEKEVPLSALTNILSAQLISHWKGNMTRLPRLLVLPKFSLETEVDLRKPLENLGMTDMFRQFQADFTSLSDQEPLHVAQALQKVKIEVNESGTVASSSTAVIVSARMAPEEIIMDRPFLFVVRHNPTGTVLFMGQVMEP

CN(C)CCOc1ccc(/C=c2\[nH]c(=O)/c(=C/c3ccccc3)[nH]c2=O)cc1 [Compound 1924, (3Z,6Z)-3-Benzylidene-6-(4-(2-dimethylaminoethoxy)benzylidene)-2,5-piperazinedione]
Degree of inhibition in PAI chromogenic substrate assay (6.25 μM): 9% | Degree of inhibition in PAI chromogenic substrate assay (12.5 μM): 7% | Degree of inhibition in PAI chromogenic substrate assay (25 μM): 18% | Degree of inhibition in PAI chromogenic substrate assay (50 μM): 38% | Degree of inhibition in PAI chromogenic substrate assay (100 μM): 64%

CN(C)CCCOc1ccc(/C=c2\[nH]c(=O)/c(=C/c3cccc(F)c3)[nH]c2=O)cc1 [Compound 5373, (3Z,6Z)-6-(4-(3-Dimethylaminopropoxy)benzylidene)-3-(3-fluorobenzylidene)-2,5-piperazinedione]
IC50: 13 µM

CN(C)CCCOc1ccc(/C=c2\[nH]c(=O)/c(=C/c3ccc(N(C)C)cc3)[nH]c2=O)cc1 [Compound 5068.HCl, (3Z,6Z)-3-(4-Dimethylaminobenzylidene)-6-(4-(3-dimethylaminopropoxy)benzylidene)-2,5-piperazinedione]
inhibition at 20 µM [1]: 81% | inhibition at 50 µM [2]: 76% | inhibition at 100 µM [3]: 75%

CN(C)CCOc1ccc(/C=c2\[nH]c(=O)/c(=C/c3c(Cl)cccc3Cl)[nH]c2=O)cc1 [Compound 1952]
inhibition at 6.25 µM [4]: 0% | Degree of inhibition in PAI chromogenic substrate assay (12.5 μM): 1% | Degree of inhibition in PAI chromogenic substrate assay (25 μM): 19% | inhibition at 50 µM [5]: 37% | inhibition at 100 µM [6]: 63%

CN(C)CCCOc1ccc(/C=c2\[nH]c(=O)/c(=C/c3ccc(C#N)cc3)[nH]c2=O)cc1 [Compound 5245]
IC50: 1.8 µM

Cc1cccc(/C=c2\[nH]c(=O)/c(=C/c3ccc(OCCCN(C)C)cc3)[nH]c2=O)c1 [Compound 5187, (3Z,6Z)-6-(4-(3-Dimethylaminopropoxy)benzylidene)-3-(3-methylbenzylidene)-2,5-piperazinedione]
inhibition at 20 µM [1]: 10% | inhibition at 100 µM [3]: 58% | IC50: 100 µM

CN(C)CCCOc1ccc(/C=c2\[nH]c(=O)/c(=C/c3cc(Cl)cc(Cl)c3)[nH]c2=O)cc1 [Compound 5372, (3Z,6Z)-3-(3,5-Dichlorobenzylidene)-6-(4-(3-dimethylaminopropoxy)benzylidene)-2,5-piperazinedione]
IC50: 11 µM

CN(C)CCOc1ccc(/C=c2\[nH]c(=O)/c(=C/c3ccccc3)[nH]c2=O)cc1 [Compound 1961, (3Z,6Z)-3-Benzylidene-6-(4-(2-dimethylaminoethoxy)benzylidene)-2,5-piperazinedione]
inhibition at 3.75 µM (3.75 μM, read-out: Degree of inhibition in PAI chromogenic substrate assay): 1% | inhibition at 7.5 µM (7.5 μM, read-out: Degree of inhibition in PAI chromogenic substrate assay): 11% | inhibition at 15 µM (15 μM, read-out: Degree of inhibition in PAI chromogenic substrate assay): 41% | inhibition at 30 µM (30 μM, read-out: Degree of inhibition in PAI chromogenic substrate assay): 49% | inhibition at 60 µM (60 μM, read-out: Degree of inhibition in PAI chromogenic substrate assay): 48%

CCCCCCC(=O)Oc1ccc(/C=c2\[nH]c(=O)/c(=C/c3ccc(OC)cc3)[nH]c2=O)cc1 [Compound 1887, (3Z,6Z)-3-(4-Heptanoyloxybenzylidene)-6-(4-methoxybenzylidene)-2,5-piperazinedione]
inhibition at 6.25 µM [4]: 0% | inhibition at 12.5 µM [7]: 5% | inhibition at 25 µM [8]: 24% | inhibition at 50 µM [5]: 46% | inhibition at 100 µM [6]: 83%

CN(C)CCOc1ccc(/C=c2\[nH]c(=O)/c(=C/c3ccccc3)[nH]c2=O)c(OCCN(C)C)c1 [Compound 1984]
Degree of inhibition in PAI chromogenic substrate assay (12.5 μM): 0% | Degree of inhibition in PAI chromogenic substrate assay (25 μM): 0% | Degree of inhibition in PAI chromogenic substrate assay (50 μM): 0% | Degree of inhibition in PAI chromogenic substrate assay (100 μM): 17%

CN(C)CCOc1cccc(/C=c2\[nH]c(=O)/c(=C/c3cccc(OCCN(C)C)c3)[nH]c2=O)c1 [Compound 1947, (3Z,6Z)-3,6-Di-(3-(2-dimethylaminoethoxy)benzylidene)-2,5-piperazinedione]
inhibition at 6.25 µM [4]: 0% | inhibition at 12.5 µM [7]: 1% | inhibition at 25 µM [8]: 1% | inhibition at 50 µM [5]: 1% | inhibition at 100 µM [6]: 1%

CCCCOc1ccc(/C=c2\[nH]c(=O)/c(=C/c3ccc(OCCCN(C)C)cc3)[nH]c2=O)cc1 [Compound 5250]
inhibition at 20 µM [1]: 10% | inhibition at 100 µM [3]: 25% | IC50: 14 µM

CN(C)CCCOc1ccc(/C=c2\[nH]c(=O)/c(=C/c3cccc(C#N)c3)[nH]c2=O)cc1 [Compound 5232, (3Z,6Z)-3-(3-Cyanobenzylidene)-6-(4-(3-dimethylaminopropoxy)benzylidene)-2,5-piperazinedione]
inhibition at 100 µM [3]: 10%

CN(C)CCCOc1ccc(/C=c2\[nH]c(=O)/c(=C/c3cccc(Cl)c3)[nH]c2=O)cc1 [Compound 5237]
inhibition at 20 µM [1]: 72% | Degree of inhibition in PAI chromogenic substrate assay (100 μM (third part of Table 1), 100 µM): 67% | IC50: 4 µM

CN(C)CCCOc1ccc(/C=c2\[nH]c(=O)/c(=C/c3ccc(C(=O)Nc4ccccc4)cc3)[nH]c2=O)cc1 [Compound 5343, 4-((3Z,6Z)-6-(4-(3-Dimethylaminopropoxy)benzylidene)-2,5-dioxo-3-piperazinylidene)methylbenzanilide]
inhibition at 20 µM [1]: 20%

CN(C)CCCOc1ccc(/C=c2\[nH]c(=O)/c(=C/c3ccc(Cl)c([N+](=O)[O-])c3)[nH]c2=O)cc1 [Compound 5398, (3Z,6Z)-3-(4-Chloro-3-nitrobenzylidene)-6-(4-(3-dimethylaminopropoxy)benzylidene)-2,5-piperazinedione]
inhibition at 20 µM [1]: 54% | IC50: 4.2 µM

CN(C)CCCOc1ccc(/C=c2\[nH]c(=O)/c(=C/c3ccccc3C(F)(F)F)[nH]c2=O)cc1 [Compound 5251, (3Z,6Z)-6-(4-(3-Dimethylaminopropoxy)benzylidene)-3-(2-trifluoromethylbenzylidene)-2,5-piperazinedione]
inhibition at 100 µM [3]: 71% | IC50: 67 µM

CN(C)CCCOc1ccc(/C=c2\[nH]c(=O)/c(=C/c3ccc(C(=O)NCc4ccccc4)cc3)[nH]c2=O)cc1 [Compound 5344, N-Benzyl-4-((3Z,6Z)-6-(4-(3-Dimethylaminopropoxy)benzylidene)-2,5-dioxo-3-piperazinylidene)methylbenzamide]
inhibition at 20 µM [1]: 40%

CN(C)CCCOc1ccc(/C=c2\[nH]c(=O)/c(=C/c3ccc4c(c3)OCO4)[nH]c2=O)cc1 [Compound 5229, (3Z,6Z)-6-(4-(3-Dimethylaminopropoxy)benzylidene)-3-(3,4-methylenedioxybenzylidene)-2,5-piperazinedione]
IC50: 3.7 µM

CN(C)CCCOc1ccc(/C=c2\[nH]c(=O)/c(=C/c3cc(Cl)cc(Cl)c3)[nH]c2=O)cc1 [Compound 5380, (3Z,6Z)-3-(3,5-Dichlorobenzylidene)-6-(4-(3-dimethylaminopropoxy)benzylidene)-2,5-piperazinedione]
IC50: 15 µM

CN(C)CCCOc1ccc(/C=c2\[nH]c(=O)/c(=C/c3ccc([N+](=O)[O-])cc3)[nH]c2=O)cc1 [Compound 5228, (3Z,6Z)-3-(4-(3-dimethylaminopropoxy)benzylidene)-6-(4-nitrobenzylidene)-2,5-piperazinedione]
IC50: 1.1 µM

CN(C)CCOCc1ccc(/C=c2\[nH]c(=O)/c(=C/c3ccccc3Br)[nH]c2=O)cc1 [Compound 5070.HCl, (3Z,6Z)-3-(2-Bromobenzylidene)-6-(4-(2-dimethylaminoethoxymethyl)benzylidene)-2,5-piperazinedione]
inhibition at 20 µM [1]: 6% | inhibition at 50 µM [2]: 6% | inhibition at 100 µM [3]: 40%

CN(C)CCCOc1ccc(/C=c2\[nH]c(=O)/c(=C/c3cccc(N4C(=O)c5ccccc5C4=O)c3)[nH]c2=O)cc1 [Compound 5255, (3Z,6Z)-6-(4-(3-Dimethylaminopropoxy)benzylidene)-3-(3-phthalimidobenzylidene)-2,5-piperazinedione]
inhibition at 20 µM [1]: 80% | inhibition at 100 µM [3]: 33% | IC50: 15 µM
